Consider one compound from patent publication US5132291A, “Antivirals and methods for increasing the antiviral activity of AZT” (priority 1989, dated 1992).

Read-outs that look alike come from different tables or passages of the source.

In data set [1] the test system is Chinese hamster lung fibroblasts. The settings on record: cited from earlier work.
The nature of data set [2]: Lymphoblast assay, effects on cell growth, CEM T-cell line. The class given is cell-based. The settings on record: human, cem cells, AICA riboside alone, read-out: reduction in T-cell growth. The protocol:
(§1) Several lymphoblast lines were utilized in conjunction with varying doses of antiviral agents to determine their effects on cell growth. In this method a daily cell count over a period of time, post-addition of antiviral compounds, can be compared with the normal cell growth curve.
(§2) Two representative T-cell lines, SupT-1 and CEM, and a B-cell line, WI-L2, were grown to mid-log phase 5×10^5 cells/ml in 50 ml of RPMI 1640 (Irvine Scientific) supplemented with 10% heat-inactivated fetal calf serum (Gemini-Bioproducts) and 1% glutamine (Gibco) to standardize seeding conditions and to assure a population of logarithmically growing cells.
(§3) An appropriate number cf T-25 flasks (Corning) were seeded with evenly suspended cells at 0.5×10^5 cells/ml in 20 ml of fresh growth media. Including a control condition, each set of flasks was treated with a dose range of antiviral compound for each cell line. Each dose condition was repeated in triplicate. All flasks were incubated for 5 days at 37° C. in a 5% CO2 incubator.
(§4) Every 24 hours for 5 days, three 0.2 ml samples of each flask were diluted in 9.8 ml of isoton (Fisher Scientific) and counted on a cell counter (Coulter Co.). The average of each flask was recorded, and the average of each triplicate antiviral does was then averaged and recorded.

The subject of the next data set is SAH hydrolase. The data set is described as follows: SAH hydrolase inhibition. The class given is biochemical. The protocol: The effect of incubation time and AICA riboside concentration on SAH hydrolase activity was determined as follows. Five samples of SAH hydrolase were incubated at the following AICA riboside concentrations: 0, 10, 25, 50 and 100 μM. The incubation buffer consisted of 25 mM potassium phosphate pH 7.0, 1 mM EDTA, 1 mM, DTT and 0.04% BSA. The total enzyme added to incubation mixture was 10 μg. At indicated times, 10 μl of sample was withdrawn and assayed in the following assay system: 25 mM potassium phosphate, pH 7.0, 40 mM DL-Homocysteine, 1 mM EDTA, 1 mM DTT, 10 μM EHNA, 0.1% BSA and 10 μM U-^14 C Adenosine (590 m Ci/mmole). The reaction was stopped by adding 15 μl of 30% TCA. The samples were then centrifuged and 15 μl were removed and applied to Kodak cellulose 13254 TLC plates along with SAH and adenosine markers. The plates were then developed in a solvent system of 1-butanol:methanol:H2 O:ammonium hydroxide (60:20:20:2). The adenosine and S-adenosyl homocysteine were visualized under UV light and the spots were cut from the plate. Radioactivity of the spots was determined by liquid scintillation spectrometry. From a plot of the reciprocal of Kinactivation vs. 1/AICA riboside concentration the values of Ki (X-intercept) and Kmax (Y-intercept), were determined (FIG. 10(b)).

A short description of data set [3]: Lymphoblast assay, effects on cell growth, SupT-1 T-cell line. The class given is cell-based. The settings on record: human, supt-1 cells, AICA riboside alone, SUP T-1, read-out: reduction in T-cell growth. The protocol:
as §1, §2, §3, §4

In a further data set the test system is HIV-1. The data set is described as follows: HIV syncitial forming assay using CEM-SS cells. The data set is classed as cell-based. The text has this:
The following cytomorphologic infectivity bioassay was used to characterize antiviral activity against HIV-1. In the following assay a single infectious unit of virus infects a single cell and initiates a focal expression of that infection, i.e., a syncitium. Since a single infectious unit leads to a discrete response, a linear relationship exists between the number of virally-induced cytopathic effects and the first order of virus concentration. Application of this procedure in assays for virus inactivation allows for evaluation of the candidate antiviral agent.
CEM-SS (syncitium-sensitive Leu 3a-positive CEM cell line) cells were grown in RPMI 1640 cell culture media (Irvine Scientific) supplemented with 10% heat-inactivated fetal bovine serum (Gemini Bioproducts) and 1% […] glutamine (Gibco). Log-phase cells were split 1:2 with the growth medium the day prior to setting up the assay to standardize plating conditions and to assure a population of logarithmically growing cells. Ninety-six-well plates (Costar) were pretreated with 50 μl of 50 μg/ml poly-1-lysine (MW=295,000 Sigma) "PLL") and were left at room temperature for 60 minutes. Residual PLL was removed with two washes of PBS. The plates were stored in the incubator until used.
On the day of the assay, the cells were counted and enough cells were harvested to plate each well with 5.0×10^4 cells per well in a volume of 200 μl (or 20 ml of […] was appropriate for each 96-well microtitre plate).
The cells were plated out on the PLL pre-treated microtitre plates at 5.0×10^4 cells/well in a volume of 200 μl. After allowing attachment for 30 minutes at 37° C. and 5% CO2, the antiviral agent(s) were added in the noted amounts and the treated plates were pre-incubated for 24 hours.
The HIV-1 virus stock (isolated from infected H-9 cells) was diluted in growth medium to yield 100 SFU (syncytial-forming units) per well. Diluted HIV-1 virus, 20 μl, was added to appropriate wells. All the plates were then incubated for 5 days at 37° C. and 5% CO2. On day 5 post-infection, the cells were given a 100 μl media change. […]

As to `NC(=O)c1ncn([C@@H]2O[C@H](CO)[C@@H](O)[C@H]2O)c1N` [AICA riboside, 5-amino-1-β-D-ribofuranosyl-imidazole-4-carboxamide], the “expansion of the purine pool (ATP and GTP)” value in data set [1] (50 μM and 200 μM) was “about 40%”. In addition, the growth rate result in data set [1] (50 μM and 200 μM, reversible by uridine) is recorded as “reduced growth rate”. The “drop in PRPP availability, measured by adenine incorporation” value in data set [1] (50 μM) is given as 18%; in data set [1] (200 μM), 82%. In addition, the “effect on cell growth” value in data set [1] (200 μM, reversed by uridine) is given as “arrested cell growth”. Also, the cytotoxicity entry in data set [1] (700 μM) is reported as “no cytotoxicty”. Moreover, in data set [1], the “UTP and CTP pools” value is on record as “decreased by a factor of approximately ten”. Further, the inhibition at 500 µM in data set [2] and in data set [3] was 30 to 50% throughout. Further, the “inhibition of SAH hydrolase” value in the data set on SAH hydrolase is “very potent inhibitors”; in the data set on SAH hydrolase (even at a concentration as low as 10 μM), “potent inhibitors”. In addition, the “antiviral effect (number of syncitia)” value in the data set with HIV-1 (AICA riboside 5 μM and 50 μM, 24 hour preincubation before HIV infection) is “antiviral effect”. Further, the “antiviral effect with preincubation versus addition at the time of infection” value in the data set with HIV-1 (CEM cells, HIV) is “more effective as an antiviral with preincubation”.
